Reference: patent US20210348164A1, “ENDOGENOUS CYTOPLASMIC ALU COMPLEMENTARY DNA IN AGE-RELATED MACULAR DEGENERATION” (University of Virginia Patent Foundation, priority 2018, published 2021)
Entries after “also recorded” stand apart in the source; their conditions may differ.

Experiments:
[1] = test system: Alu cDNA in primary human RPE cells; experiment: Alu cDNA in primary human RPE cells (Alu c-PCR, real-time PCR, in situ hybridization, equator blotting); type: cell-based; details: primary human RPE cells exposed to Alu RNA, heat shock, or DICER1 AS; NNRTIs at high doses
Method: Cell culture and transfection. Primary mouse and human RPE cells were isolated as previously described (Kerur et al., 2018). All cells were maintained at 37° C. in a 5% CO2 environment. Mouse RPE cells were cultured in DMEM supplemented with 20% FBS and penicillin/streptomycin antibiotics at standard concentrations; primary human RPE cells were maintained in DMEM supplemented with 10% FBS and antibiotics. The human RPE cell line ARPE19 was cultured as previously described (Kerur et al., 2018) and maintained in DMEM-F12 containing penicillin/streptomycin, Fungizone, and gentamicin. HEK293T cells were cultured in DMEM with 10% fetal bovine serum (FBS) with 100 U/ml penicillin/streptomycin and 2 mM L-glutamine. Primary wild-type mouse bone marrow-derived macrophages (BMDMs) were isolated, and cultured in Iscove's Modified Dulbecco's Medium (IMDM) supplemented with 30% L929 supernatant containing macrophage-stimulating factor, nonessential amino acids, sodium pyruvate, 10% FBS and antibiotics, 50 μM β-mercaptoethanol (Seo et al., 2015), and serum starved in IMDM with 1% FBS and 100 U/ml penicillin/streptomycin overnight prior to LPS stimulation. NRTIs or NNRTIs were added 30 minutes prior to LPS stimulation and again 30 minutes prior to ATP activation. LPS (100 ng/mL) was added for 3-4 hours prior to the addition of ATP. Cell lysates were collected 30 minutes after addition of ATP (5 mM). Primary human subcutaneous pre-adipocytes (Catalogue No. PCS-210-010, ATCC, Manassas, Va., United States of America) and primary human dermal fibroblasts (Catalogue No. PCS-201-012, ATCC) were grown in fibroblast basal medium with fibroblast growth kit for low serum (ATCC).
Umbilical artery vascular smooth muscle cells (Catalogue No. CC-2579, Lonza, Morristown, N.J., United States of America) were grown in SMGM™-2 Smooth Muscle Growth Medium-2 BULLETKIT™ (Lonza). Primary human skeletal myoblasts (Catalogue No. A11440, Thermo Fisher Scientific) were grown in DMEM with 2% horse serum. Primary human epidermal keratinocytes (Catalogue NO. CO215C, Thermo Fisher Scientific) were grown in EPILIFE® Medium (Thermo Fisher Scientific). Human umbilical vein endothelial cells (HUVEC) were grown in HUVEC EGM™-2 Media (Lonza). Primary human peripheral blood mononuclear cells (Catalogue NO. PCS-800-011, ATCC) were directly used without culture for experiments. RPMI 1640 medium with 10% human serum with human GM-CSF (Miltenyi Biotec Inc., Auburn, Calif., United States of America) was used as media during the experiment. Transfections were performed according to the manufacturer's instructions (LIPOFECTAMINE® 2000, Invitrogen). For transfection of primary human peripheral blood mononuclear cells, HiPerFect Transfection Reagent (Qiagen) was used as previously described (Troegeler et al., 2014). NRTIs were administered 60 minutes before transfection and added again upon replacement of media at 8 hours. To induce acid injury or osmotic stress, primary human RPE cells were treated with HCl (pH 4.0 media) or H2O for 30 minutes, 1 hour, and 2 hours at 37° C. in 5% CO2, respectively. NIH3T3 Tet-ON cells were cultured in DMEM with 10% tetracycline-free fetal bovine serum (FBS) with 100 U/ml penicillin/streptomycin. NIH3T3 Tet-ON cells were transfected with pLD401 (see Taylor et al., 2013; gift of J. D. Boeke, Institute for Systems Genetics, NYU Langone Health, New York, New York, United States of America) and human L1 ORF1p abundance was monitored after 24 hours of doxycycline induction. […]

L1 reverse transcriptase = L1 reverse transcriptase (Homo sapiens, UniProt O00370); details: Merluzzi et al., 1990; Dai et al., 2011; cited from earlier work
L1 reverse transcriptase, sequence (O00370 whole entry, looked up): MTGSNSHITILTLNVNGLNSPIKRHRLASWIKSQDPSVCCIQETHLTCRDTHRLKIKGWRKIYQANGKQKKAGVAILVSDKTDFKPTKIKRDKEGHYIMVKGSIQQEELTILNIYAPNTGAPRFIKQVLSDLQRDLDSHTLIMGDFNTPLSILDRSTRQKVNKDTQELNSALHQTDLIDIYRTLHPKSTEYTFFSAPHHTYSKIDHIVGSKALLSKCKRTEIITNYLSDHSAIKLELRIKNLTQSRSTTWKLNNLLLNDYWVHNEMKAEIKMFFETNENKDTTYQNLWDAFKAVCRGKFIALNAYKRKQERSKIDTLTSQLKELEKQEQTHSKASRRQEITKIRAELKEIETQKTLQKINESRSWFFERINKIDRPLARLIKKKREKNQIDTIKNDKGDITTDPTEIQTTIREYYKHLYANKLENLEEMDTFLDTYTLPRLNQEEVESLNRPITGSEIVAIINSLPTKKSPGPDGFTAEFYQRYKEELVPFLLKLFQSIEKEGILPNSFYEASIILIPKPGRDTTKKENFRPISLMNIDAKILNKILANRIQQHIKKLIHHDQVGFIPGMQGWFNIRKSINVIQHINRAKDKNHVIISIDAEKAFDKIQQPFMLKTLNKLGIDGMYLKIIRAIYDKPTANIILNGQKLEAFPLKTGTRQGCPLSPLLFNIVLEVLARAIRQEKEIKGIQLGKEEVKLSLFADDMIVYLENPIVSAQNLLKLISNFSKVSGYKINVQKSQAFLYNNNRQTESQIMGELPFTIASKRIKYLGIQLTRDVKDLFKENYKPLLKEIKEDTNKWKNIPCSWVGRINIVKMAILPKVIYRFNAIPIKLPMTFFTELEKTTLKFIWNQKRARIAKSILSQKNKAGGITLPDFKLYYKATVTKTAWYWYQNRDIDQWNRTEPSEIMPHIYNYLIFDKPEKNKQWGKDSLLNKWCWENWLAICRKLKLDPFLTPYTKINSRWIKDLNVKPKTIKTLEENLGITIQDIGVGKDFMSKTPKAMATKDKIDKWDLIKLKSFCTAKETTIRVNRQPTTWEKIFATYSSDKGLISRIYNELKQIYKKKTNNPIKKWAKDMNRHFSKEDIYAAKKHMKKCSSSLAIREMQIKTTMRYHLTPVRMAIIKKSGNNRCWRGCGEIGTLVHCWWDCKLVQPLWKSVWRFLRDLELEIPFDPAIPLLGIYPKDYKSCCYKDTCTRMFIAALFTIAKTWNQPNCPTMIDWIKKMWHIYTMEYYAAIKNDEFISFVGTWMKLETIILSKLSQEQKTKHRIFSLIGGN

[2] = test system: Alu RNA-induced RPE degeneration; experiment: Alu RNA-induced RPE degeneration in wild-type mice (fundus photography, ZO-1 flat mounts); type: in vivo, mouse; details: WT mice; intravitreous; low (25 μmol) doses
NLRP3 inflammasome = experiment: Caspase-1 activation in bone marrow-derived macrophages treated with LPS and ATP (immunoblot); type: cell-based; details: primary mouse BMDM; LPS and ATP stimulation
Method: Western blotting. Cells and tissue were homogenized in RIPA buffer (Sigma-Aldrich) with protease and phosphatase inhibitors (Roche) or lysed directly in Laemmli buffer. Protein concentration was determined using Pierce BCA Protein Assay Kit (Thermo Fisher Scientific). Equal quantities of protein (10-50 μg) prepared in Laemmli buffer were resolved by SDS-PAGE on NOVEX® Tris-Glycine Gels (Invitrogen), or MINI-PROTEAN® TGX™ Precast Protein Gels (Bio-Rad Laboratories, Inc., Hercules, Calif., United States of America) and transferred onto Immobilon-FL PVDF membranes (0.2 or 0.45 μm; MilliporeSigma, Burlington, Mass., United States of America). The transferred membranes were blocked in ODYSSEY® Blocking Buffer (PBS) for 1 hour at room temperature and then incubated with primary antibody at 4° C. overnight. Immunoreactive bands were visualized using species-specific secondary antibodies conjugated with IRDYE®. The blot images were captured on ODYSSEY® imaging systems. […]

| Molecule | Alu cDNA induction [1] | inhibition of L1 reverse transcriptase (L1 reverse transcriptase) | Alu RNA-induced RPE degeneration [2] | caspase-1 activation / NLRP3 inflammasome activation (NLRP3 inflammasome) |
| --- | --- | --- | --- | --- |
| O=C1Nc2ccc(Cl)cc2[C@@](C#CC2CC2)(C(F)(F)F)O1 [EFV, efavirenz] | prevented Alu cDNA synthesis; also recorded: reduced | inhibit L1 reverse transcriptase at high doses | did not block Alu RNA-induced RPE degeneration at low doses | did not inhibit NLRP3 inflammasome activation |
| L1 siRNA: siRNA targeting L1; cholesterol-conjugated mouse L1 siRNA (SEQ ID NOs: 48 and 49) in vivo, human L1 siRNA sequences in human cells (chain 1 ACUAUUACUCUGAUACCTT; chain 2 UGUACUAAGGUCAAAUCTT; cholesterol conjugated, position not given here) | prevented the production of Alu cDNA; also recorded: reduced |  |  |  |
| CC(C)Nc1cccnc1N1CCN(C(=O)c2cc3cc(NS(C)(=O)=O)ccc3[nH]2)CC1 [DLV, delavirdine] | prevented Alu cDNA synthesis; also recorded: reduced | inhibit L1 reverse transcriptase at high doses | did not block Alu RNA-induced RPE degeneration at low doses | did not inhibit NLRP3 inflammasome activation |
| Cc1ccnc2c1NC(=O)c1cccnc1N2C1CC1 [NVP, nevirapine] | did not prevent Alu cDNA synthesis | does not inhibit L1 reverse transcriptase | did not prevent Alu RNA-induced RPE degeneration at low or high doses | does not inhibit |
